From patent US7098218B2, “Steroidal compounds for inhibiting steroid sulphatase” (priority 2001, dated 2006)

Tests used:
[1] = target: T1, human placental steroid sulphatase (Homo sapiens, UniProt P08842); assay: Inhibition of oestrone sulphatase activity in human placental microsomes; type: biochemical; settings: for inhibition at 0.0001 µM / inhibition at 0.001 µM / inhibition at 0.01 µM / inhibition at 0.1 µM / inhibition at 1 µM / inhibition at 10 µM: read-out: Mean % Inhibition ± SD
T1 construct: Placental microsomes (100000 g fraction) were prepared from a positive-positive human placenta from a normal-term pregnancy; from tissue; host or cells: human placenta, microsomal fraction
T1 sequence (P08842 22-583): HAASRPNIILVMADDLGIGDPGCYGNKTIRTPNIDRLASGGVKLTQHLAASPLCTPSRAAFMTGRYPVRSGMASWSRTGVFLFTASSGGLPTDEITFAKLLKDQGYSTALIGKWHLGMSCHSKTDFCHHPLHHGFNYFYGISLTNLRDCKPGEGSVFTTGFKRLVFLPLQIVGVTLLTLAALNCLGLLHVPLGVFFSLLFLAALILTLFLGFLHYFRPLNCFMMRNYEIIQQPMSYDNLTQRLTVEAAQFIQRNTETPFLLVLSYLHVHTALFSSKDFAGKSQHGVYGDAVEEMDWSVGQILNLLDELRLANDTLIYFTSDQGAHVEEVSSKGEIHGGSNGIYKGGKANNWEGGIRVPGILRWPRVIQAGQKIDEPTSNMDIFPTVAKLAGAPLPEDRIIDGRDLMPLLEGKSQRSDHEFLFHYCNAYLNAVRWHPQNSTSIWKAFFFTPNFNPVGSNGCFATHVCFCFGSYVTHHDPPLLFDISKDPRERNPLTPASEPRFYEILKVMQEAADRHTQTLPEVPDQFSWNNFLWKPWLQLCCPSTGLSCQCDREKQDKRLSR

[2] = target: T2, E2DH Type I (HSD Type I) in T47D breast cancer cells (Homo sapiens, UniProt P14061); assay: Conversion of oestrone to oestradiol in intact T47D cell monolayers (Protocol 7); type: cell-based; settings: T47D, measured at 10 μM, read-out: % Inhibition E1 → E2 ± SD (HSD Type I)
T2 construct: T47D breast cancer cells in which E2HSD Type I activity is abundant; endogenous in cells; host or cells: T47D breast cancer cells
T2 sequence (P14061 2-328 limits assumed): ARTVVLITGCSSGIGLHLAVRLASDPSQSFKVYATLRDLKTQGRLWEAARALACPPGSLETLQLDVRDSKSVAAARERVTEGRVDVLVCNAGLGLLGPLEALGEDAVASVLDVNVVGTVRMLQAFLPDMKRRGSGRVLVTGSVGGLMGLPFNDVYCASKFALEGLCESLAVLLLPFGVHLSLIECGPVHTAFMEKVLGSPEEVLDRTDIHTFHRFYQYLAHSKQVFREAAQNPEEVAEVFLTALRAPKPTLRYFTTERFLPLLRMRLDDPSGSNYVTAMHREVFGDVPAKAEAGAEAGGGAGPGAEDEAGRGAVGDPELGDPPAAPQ
Procedure: (§1) The ability of compounds to inhibit steroid dehydrogenase activity can be assessed using either T47D breast cancer cells in which E2HSD Type I activity is abundant or MDA-MB-231 cells for Type II inhibitor studies. In both cell lines formation of products is linear with respect to time and cell numbers. Details on a suitable Assay Protocol are presented in the Examples section.
(§2) Conversion of oestrone to oestradiol (E1→E2, E2DH Type I) and oestradiol to oestrone (E2→E1, E2DH Type II) was measured in intact cell monolayers of T47D and MDA-MB231 breast cancer cells respectively. Cells were cultured in flasks until they were 80–90% confluent. ^3 H-E1 or ^3H-E2 (6 pmol, ˜90 Ci/mmol) were added to each flask in the absence (control) or presence of various test compounds (10 μM) in 2.5 ml of medium. Substrate was also added to flasks without cells and incubated in parallel (blanks).
(§3) After incubation with T47D cells for 30 min or MDA cells for 3 h at 37° C., 2 ml of the medium was added to test tubes containing ^14C-E2 or ^14C-E1 (˜5000 cpm) and 50 μg E2 or E1 respectively. Steroids were extracted from the aqueous medium with diethyl ether (4 ml). The ether phase was decanted into separate tubes after freezing the aqueous phase in solid carbon dioxide-methanol mixture. The ether was evaporated to dryness under a stream of air at 40° C. The residue was dissolved in a small volume of diethyl ether and applied to TLC plates containing a fluorescent indicator. E1 and E2 were separated by TLC using DCM-Ethyl acetate (4:1 v/v). The position of the product from each incubation flask was marked on the TLC plate after visualisation under UV light. The marked regions were cut out and placed in scintillation vials containing methanol (0.5 ml) to elute the product. The amount of ^3 H-product formed and ^14C-E1 or ^14C-E2 recovered were calculated after scintillation spectrometry. The amount of product formed was corrected for procedural losses and for the number of cells in each flask.

[3] = target: T3, E2DH Type II (HSD Type II) in MDA-MB231 breast cancer cells (Homo sapiens, UniProt P37059); assay: Conversion of oestradiol to oestrone in intact MDA-MB231 cell monolayers (Protocol 7); type: cell-based; settings: MDA-MB-231, measured at 10 μM, read-out: % Inhibition E2 → E1 ± SD (HSD Type II)
T3 construct: endogenous in cells; host or cells: MDA-MB-231 breast cancer cells
T3 sequence (P37059 1-387): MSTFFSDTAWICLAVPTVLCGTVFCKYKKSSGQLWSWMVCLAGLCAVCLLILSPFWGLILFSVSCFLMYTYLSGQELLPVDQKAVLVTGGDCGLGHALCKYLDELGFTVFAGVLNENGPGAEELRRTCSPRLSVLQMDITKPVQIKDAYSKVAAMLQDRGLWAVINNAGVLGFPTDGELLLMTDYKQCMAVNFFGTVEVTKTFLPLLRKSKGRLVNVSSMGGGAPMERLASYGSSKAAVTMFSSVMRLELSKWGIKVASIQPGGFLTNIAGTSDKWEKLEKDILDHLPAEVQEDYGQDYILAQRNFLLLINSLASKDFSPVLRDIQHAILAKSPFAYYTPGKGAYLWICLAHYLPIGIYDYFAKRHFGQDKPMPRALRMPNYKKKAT
Procedure: as §1, §2, §3

STS = target: T4, STS (Homo sapiens, UniProt P08842); assay: biochemical; settings: STS IC50 (nM), inhibition of E1S→E1; Table 1
T4 construct: can be assessed using either intact MCF-7 breast cancer cells or placental microsomes
T4 sequence (P08842 22-583): T1 sequence (P08842 22-583)

C[C@]12CCC3c4ccc(O)cc4CCC3C1CC(=O)NC2=O (stereo partly shown) gave a melting point of 297 to 300 °C.

Work on CN1C(=O)CC2C3CCc4cc(O)ccc4C3CC[C@]2(C)C1=O (stereo partly shown) yielded a melting point of 328 to 330 °C.

CCCN1C(=O)CC2C3CCc4cc(O)ccc4C3CC[C@]2(C)C1=O (stereo partly shown) gave a melting point of 183 to 186 °C.

Work on CCCCCN1C(=O)CC2C3CCc4cc(O)ccc4C3CC[C@]2(C)C1=O (stereo partly shown) yielded a melting point of 181 to 184 °C.

With C[C@]12CCC3c4ccc(O)cc4CCC3C1CC(=O)N(Cc1ccccc1)C2=O (stereo partly shown) the melting point was 298 to 301 °C.

C[C@]12CCC3c4ccc(O)cc4CCC3C1CC(=O)N(CCCCBr)C2=O (stereo partly shown) gave a melting point of 165 to 167 °C.

In the case of C=CCN1C(=O)CC2C3CCc4cc(O)ccc4C3CC[C@]2(C)C1=O (stereo partly shown), the melting point is reported as 147 to 149 °C.

CCN1C(=O)CC2C3CCc4cc(O)ccc4C3CC[C@]2(C)C1=O (stereo partly shown) gave a melting point of 306 to 308 °C.

CCCCCCN1C(=O)CC2C3CCc4cc(O)ccc4C3CC[C@]2(C)C1=O (stereo partly shown) gave a melting point of 157 to 159 °C.

C[C@]12CCC3c4ccc(O)cc4CCC3C1CC(=O)N(CC1CC1)C2=O (stereo partly shown) gave a melting point of 238 to 240 °C.

With CC(C)(C)c1ccc(CN2C(=O)CC3C4CCc5cc(O)ccc5C4CC[C@]3(C)C2=O)cc1 (stereo partly shown) the melting point was 128 to 130 °C.

Work on C[C@]12CCC3c4ccc(OS(N)(=O)=O)cc4CCC3C1CC(=O)NC2=O (stereo partly shown) [Compound 36, 3-Sulfamoyl-16,17-seco-estra-1,3,5(10)-Triene16,17-imide] yielded an IC50 [1] of 20 nM, an inhibition at 0.0001 µM [1] of -6.5 ± 3.6% and an inhibition at 0.001 µM [1] of -2.5 ± 3%. It also gave an inhibition at 0.01 µM [1] of 17.4 ± 32.3%, an inhibition at 0.1 µM [1] of 72.6 ± 3.1% and an inhibition at 1 µM [1] of 93.8 ± 4.2%. It also gave an inhibition at 10 µM [1] of 98.7 ± 2.7%.

CN1C(=O)CC2C3CCc4cc(OS(N)(=O)=O)ccc4C3CC[C@]2(C)C1=O (stereo partly shown) [Compound 37, 3-Sulfamoyl-N-methyl-16,17-seco-estra-1,3,5(10)-triene-16,17-imide] showed an IC50 [1] of 12 nM, an inhibition at 0.0001 µM [1] of 4.7 ± 3% and an inhibition at 0.001 µM [1] of 15 ± 2.6%. For the same compound, the inhibition at 0.01 µM [1] was 46.4 ± 6%, the inhibition at 0.1 µM [1] was 81.9 ± 3.3% and the inhibition at 1 µM [1] was 96.4 ± 5.1%. It also gave an inhibition at 10 µM [1] of 99.1 ± 0.2%.

With C[C@]12CCC3c4ccc(OS(N)(=O)=O)cc4CCC3C1CC(=O)N(Cc1ccccc1)C2=O (stereo partly shown) [STX 236, 3-Sulfamoyl-N-benzyl-16,17-seco-estra-1,3,5(10)-triene-16,7-imide] the “inhibition of STS (in words)” value ([1]; in vitro) was “in a minor extend”.

Compound C[C@]12CCC3c4ccc(O)cc4CCC3C1CC(=O)NC2=O (stereo partly shown) [compound 187] has an inhibition at 10 µM [2] of 25.3 ± 2.2% and an inhibition at 10 µM [3] of -15.4 ± 0.41%.

CN1C(=O)CC2C3CCc4cc(O)ccc4C3CC[C@]2(C)C1=O (stereo partly shown) [compound 188] gave an inhibition at 10 µM [2] of 33 ± 1.79% and an inhibition at 10 µM [3] of -3.51 ± 2.44%.

Compound CCCN1C(=O)CC2C3CCc4cc(O)ccc4C3CC[C@]2(C)C1=O (stereo partly shown) [compound 189] has an inhibition at 10 µM [2] of 17 ± 3.25% and an inhibition at 10 µM [3] of 5.05 ± 2.31%.

CCCCCN1C(=O)CC2C3CCc4cc(O)ccc4C3CC[C@]2(C)C1=O (stereo partly shown) [compound 190] showed an inhibition at 10 µM [2] of 24.1 ± 4.59% and an inhibition at 10 µM [3] of 0.48 ± 4.76%.

CCCN1C(=O)CC2C3CCc4cc(OS(N)(=O)=O)ccc4C3CC[C@]2(C)C1=O (stereo partly shown) [compound 213] showed an IC50 (STS) of 41 nM, an inhibition at 10 µM [2] of 22.5 ± 1.62% and an inhibition at 10 µM [3] of 14.3 ± 14.8%.
